Publication PMC13110364, “Design, Synthesis, and Biological Evaluation of Novel Triazine‐Based Dual Histone Deacetylase/phosphatidylinositol 3‐kinase Inhibitors for Breast Cancer Therapy” (Chemmedchem, 2026)

Columns and labels:
LY2 breast cancer cells = assay: MTS cell viability assay, LY2; assay type: cell-based; details: 72 h treatment
Experimental: The cell viability effects of compounds 5a–5f were assessed in LY2, JIMT1, and MDA‐MB‐231 breast cancer cell lines using the 3‐(4,5‐dimethylthiazol‐2‐yl)‐5‐(3‐carboxymethoxyphenyl)‐2‐(4‐sulfophenyl)‐2H‐tetrazolium (MTS) assay. The MTS assay measures metabolic viability and serves as a first‐pass screen.
JIMT‐1 (DSMZ ACC 589) and MDA‐MB‐231 (ATCC HTB‐26) breast cancer cell lines were maintained in Dulbecco's Modified Eagle Medium (DMEM) High Glucose with L‐glutamine (D5796, Sigma) supplemented with 10% fetal calf serum. MCF7‐derivative LY2 breast cancer cells were previously described (REF: PMID: 33420368). LY2 cells were cultured in phenol red‐free MEM (PRF‐MEM; 51 200‐046, Gibco) supplemented with 10% charcoal dextran‐stripped fetal calf serum (CDS‐FCS; F6765, Merck), 2 mmol/L L‐glutamine (G7513, Merck), and 10^−8 mol/L 4‐hydroxytamoxifen (4‐OHT; H7904, Merck). All cell lines were maintained at 37°C in a humidified incubator with 5% CO2 and regularly authenticated and tested for mycoplasma.
Cell viability was evaluated in response to increasing concentrations of 5a‐5f (0.3, 1, 3, 10, and 30 μM) or vehicle control (0.1% DMSO). LY2, JIMT1, and MDA‐MB‐231 cells were seeded at a density of 2,500 cells per well in 96‐well plates with a total volume of 100 μL per well. Prior to treatment, cells were serum‐deprived for 24 h. Following serum depletion, cells were treated in complete growth medium for 72 h. Cell viability was assessed using the MTS assay (G1111, Promega) according to the manufacturer's instructions. Absorbance was measured at 495 nm using a BioTek Synergy HTX Multi‐Mode Microplate Reader (Agilent). Results were normalized to the vehicle control (DMSO), and the half‐maximal inhibitory concentration (IC50) of the inhibitors was determined by nonlinear regression (curve fit) using a four‐parameter variable slope model.

HDAC10 = HDAC10 (Homo sapiens, UniProt Q969S8); assay: Selectivity profile, single dose 0.5 µM, HDAC10; assay type: biochemical; details: remaining enzyme activity; single‐dose duplicate mode at 0.5 μM; read-out: Enzyme % activity (relative to DMSO controls) at 0.5 µM, HDAC10
Sequence of HDAC10 (Q969S8 whole entry, canonical isoform): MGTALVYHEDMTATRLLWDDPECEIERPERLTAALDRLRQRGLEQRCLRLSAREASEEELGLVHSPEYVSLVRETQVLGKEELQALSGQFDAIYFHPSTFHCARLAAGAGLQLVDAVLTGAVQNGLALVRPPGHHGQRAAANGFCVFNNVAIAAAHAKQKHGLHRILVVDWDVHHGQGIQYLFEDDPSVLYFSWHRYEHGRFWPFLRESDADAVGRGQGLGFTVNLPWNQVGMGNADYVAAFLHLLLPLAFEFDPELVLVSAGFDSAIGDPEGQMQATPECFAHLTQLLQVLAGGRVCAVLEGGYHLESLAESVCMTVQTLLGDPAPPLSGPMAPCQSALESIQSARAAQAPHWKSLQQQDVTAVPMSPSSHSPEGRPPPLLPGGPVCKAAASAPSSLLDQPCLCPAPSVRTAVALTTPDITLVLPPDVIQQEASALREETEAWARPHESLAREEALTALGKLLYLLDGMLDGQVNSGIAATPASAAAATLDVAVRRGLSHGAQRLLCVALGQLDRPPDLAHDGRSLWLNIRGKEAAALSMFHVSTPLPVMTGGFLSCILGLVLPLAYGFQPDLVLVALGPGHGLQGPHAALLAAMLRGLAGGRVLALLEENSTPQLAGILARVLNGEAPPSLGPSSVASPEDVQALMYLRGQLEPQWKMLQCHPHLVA
Experimental: The inhibitory profiles of 5b and 5f were evaluated against selected HDAC isoforms (HDAC1, HDAC3, HDAC4, HDAC8, and HDAC10) and PI3K isoforms (PI3Kδ, PI3Kγ, and PI3Kβ) at a fixed concentration of 0.5 µM (Table 3). […] While we explored the phenyl ring in the linker region to achieve selectivity for the HDAC6 isoform, we still observed HDAC class I inhibition. […] It is important to highlight that PI3Kδ is mainly expressed in hematopoietic system and plays roles in leukocyte signaling, T‐cell activation, and immune cell trafficking. FDA‐approved drug idelalisib is a selective PI3Kδ inhibitor in B‐cell malignancies; however, this drug is also related to disruption of the immune system, which can lead to immune manifestations, such as infections. In addition, while isoform‐selective PI3K inhibitors are well tolerated, pan‐inhibition of PI3K is less expected that compensatory mechanisms by the action of other PI3Ks can take place. Thus, a more balanced profile of PI3K inhibition can lead to an overall lack of toxicity of PI3K inhibitors.

class I HDAC (acetyl H3) = assay: Western blot, acetyl H3 in treated cells; assay type: cell-based; details: LY2, JIMT1, MDA‐MB‐231 cells, 24 h; seen at 10 µM
Experimental: (§1) FIGURE 4 Cell‐based evaluation of compounds 5a– 5f. Dose‐dependent effects of compound treatment (5a‐5f) on breast cancer cell viability across JIMT1 (A), MDA‐MB‐231 (B), and LY2 (C). Cell‐based evaluation of HDAC and PI3K inhibition by compounds 5b and 5f by Western blot. JIMT1 cells were treated for 24 h with compounds 5b (D) and 5f (E) at the concentrations of 1, 3, and 10 µM or with vehicle control (0.1% DMSO). Protein expression levels were analyzed by western blot using antibodies against acetylated α‐tubulin, acetyl H3 (H3K9Ac and H3K14Ac), phospho‐AKT (p‐AKT), and total AKT. GAPDH served as a loading control.
(§2) To investigate if 5b and 5f were acting as multitarget inhibitors, we evaluated the modulation of HDAC6 and PI3K signaling pathways by western blot analysis (Figure 4D,E). […]
(§3) Total protein samples were extracted from treated cells using a lysis buffer containing 0.1% IGEPAL CA‐630 (I8896, Merck), 0.5% deoxycholic acid (D2510, Merck), and 0.1% SDS (L3771, Merck), freshly supplemented with protease and phosphatase inhibitor cocktail (78442, Thermo Fisher Scientific). Protein concentrations were quantified using the Pierce BCA Protein Assay Kit (23227, Thermo Fisher Scientific) according to the manufacturer's instructions. […] Chemiluminescence signals were detected using the Amersham Imager 680 Imaging System. […]

[1] = test system: PI3K pathway (phosphorylation of AKT); assay: Western blot, phospho-AKT in treated cells; assay type: cell-based; details: LY2, JIMT1, MDA‐MB‐231 cells, 24 h; seen at 10 µM
Experimental: as §1, §2, §3

For `O=C(NO)c1ccc(CNc2nc(-c3cccc(O)c3)nc(N3CCOCC3)n2)cc1` [Compound 5b, N‐Hydroxy‐4‐(((4‐(3‐Hydroxyphenyl)‐6‐Morpholino‐1,3,5‐Triazin‐2‐yl)Amino)Methyl)Benzamide], the IC50 (LY2 breast cancer cells) was 4.68 ± 1.34 µM, the remaining activity at 0.5 µM (HDAC10) was 15.9% and the “Acetylation of H3, western blot” value (class I HDAC (acetyl H3)) was “increased levels of acetylation of H3”. The “Phosphorylation of AKT, western blot” value [1] was “decreased phosphorylation of AKT”.

For `COc1ccc(-c2nc(NCc3ccc(C(=O)NO)cc3)nc(N3CCOCC3)n2)cn1` [Compound 5f, N‐Hydroxy‐4‐(((4‐(6‐Methoxypyridin‐3‐yl)‐6‐Morpholino‐1,3,5‐Triazin‐2‐yl)Amino)Methyl)Benzamide], the IC50 (LY2 breast cancer cells) was 8.81 ± 0.59 µM, the remaining activity at 0.5 µM (HDAC10) was 28.1% and the “Acetylation of H3, western blot” value (class I HDAC (acetyl H3)) was “increased levels of acetylation of H3”. The “Phosphorylation of AKT, western blot” value [1] was “decreased phosphorylation of AKT”.
